Assay results taken from PubChem BioAssay (NCI).
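Dose response: 5 concentrations. Exposure: 48 h. Format: 96-well plates. Endpoint: linear interpolation; highest concentration if not reached. At the GI50, growth is halved. Definition used: TGI = concentration required for complete inhibition of growth.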

Legend:
Test in all cases: NCI anticancer screen, dose series, 48 h
HOP-62 NSCLC = tested on: HOP-62 NSCLC
HCT-116 colon = tested on: HCT-116 colon
HOP-92 NSCLC = tested on: HOP-92 NSCLC
HL-60(TB) leukemia = tested on: HL-60(TB) leukemia
UACC-257 melanoma = tested on: UACC-257 melanoma
MDA-MB-231 breast = tested on: MDA-MB-231 breast
OVCAR-4 ovarian = tested on: OVCAR-4 ovarian
HT29 colon = tested on: HT29 colon
COLO 205 colon = tested on: COLO 205 colon
CAKI-1 renal = tested on: CAKI-1 renal

Compound	GI50 (HOP-62 NSCLC)	TGI (HOP-62 NSCLC)	GI50 (HCT-116 colon)	TGI (HCT-116 colon)	GI50 (HOP-92 NSCLC)	TGI (HOP-92 NSCLC)	GI50 (HL-60(TB) leukemia)	TGI (HL-60(TB) leukemia)	GI50 (UACC-257 melanoma)	TGI (UACC-257 melanoma)	GI50 (MDA-MB-231 breast)	TGI (MDA-MB-231 breast)	GI50 (OVCAR-4 ovarian)	TGI (OVCAR-4 ovarian)	GI50 (HT29 colon)	TGI (HT29 colon)	GI50 (COLO 205 colon)	TGI (COLO 205 colon)	GI50 (CAKI-1 renal)	TGI (CAKI-1 renal)
C=C1C(=O)O[C@H]2[C@H]1CC/C(CNS(=O)(=O)c1ccc3ccccc3c1)=C\CC[C@@]1(C)O[C@@H]21	12.5 µM	29.6 µM	0.879 µM	2.12 µM	1.89 µM	6.34 µM	1.63 µM	3.96 µM	1.9 µM	4.54 µM	2.15 µM	5.36 µM	4.2 µM	18.7 µM	1.94 µM	3.91 µM	1.16 µM	2.69 µM		
C=C1C(=O)O[C@H]2[C@H]1CC/C(CNC(=O)/C=C/c1cccc(OC)c1)=C\CC[C@@]1(C)O[C@@H]21	3.17 µM	14.8 µM	0.545 µM	1.94 µM	1.03 µM	3.38 µM			1.45 µM	2.98 µM	1.79 µM	4.07 µM	1.69 µM	4.79 µM	1.22 µM	2.81 µM	1.34 µM	2.85 µM	1.31 µM	2.68 µM
O=c1[nH]c(-c2ccccc2)nc2ccc(Cl)cc12				> 100 µM		84.1 µM				> 100 µM				> 100 µM		> 100 µM		> 100 µM		> 100 µM
CS(=O)(=O)N(CCC#N)c1ccc(/C=N/NC(=O)CC(=O)Nc2cccc(Cl)c2)cc1		> 100 µM		> 100 µM						> 100 µM				> 100 µM		> 100 µM		> 100 µM		> 100 µM
CN(C)/C=C/c1nnnn1-c1ccc(Cl)cc1	11.4 µM	46.9 µM	4.4 µM	37.3 µM					35.6 µM	> 100 µM	16.1 µM	> 100 µM	28.2 µM	80.4 µM	20.2 µM	45 µM	28.2 µM	58.7 µM		
Cn1ccnc1C(c1nccn1C)C(C)(C)[N+](=O)[O-]		> 100 µM		> 100 µM		> 100 µM		> 100 µM		> 100 µM				> 100 µM				> 100 µM		> 100 µM
Nc1ccc(N=Nc2ccccc2)c(N)n1	33.9 µM	> 100 µM	23 µM	60.5 µM	14.8 µM	65.9 µM	27.5 µM	> 100 µM	38.6 µM	> 100 µM	18 µM	73.7 µM			34.5 µM	> 100 µM	26.1 µM	72.8 µM		
Cc1ccc(C(=O)O/N=C2/CCCCC2CN(C)C)cc1 (centres undefined)		> 100 µM		> 100 µM		> 100 µM		> 100 µM		> 100 µM				> 100 µM		> 100 µM		> 100 µM		> 100 µM
O=C1O[C@H](C(Cl)(Cl)Cl)N2CCCC12 (some centres undefined)		> 100 µM				> 100 µM		> 100 µM		> 100 µM				> 100 µM		> 100 µM		> 100 µM		> 100 µM
c1cc(C2CCCCC2)ccc1OCCCCCCN1CCNCC1					1.55 µM	5.23 µM	1.54 µM	3.32 µM	1.89 µM	3.68 µM	1.61 µM	3.29 µM	1.95 µM	4.52 µM	1.45 µM	2.98 µM	1.96 µM	3.55 µM	2.01 µM	4.54 µM
COc1ccccc1/C=C1\CCC(CNc2ccc(Cl)cc2)C1=O (centres undefined)		22.9 µM		19.1 µM		30.6 µM		13.9 µM		26.7 µM				28.2 µM		22.9 µM		> 32.7 µM		13.6 µM
COc1ccc(-c2nsc3c2NC(=O)CC3c2ccc3c(c2)OCO3)cc1 (centres undefined)	1.92 µM	> 100 µM	0.574 µM	> 100 µM			0.579 µM	8.32 µM	10.8 µM	> 100 µM	1.13 µM	11.6 µM	6.03 µM	> 100 µM	0.414 µM	11.3 µM	0.627 µM	3.72 µM	0.852 µM	> 100 µM
CNS(=O)(=O)NN(C)S(=O)(=O)c1ccc(Cl)cc1		> 100 µM		> 100 µM				> 100 µM		> 100 µM				> 100 µM		> 100 µM		> 100 µM		> 100 µM
Oc1ccc2occ3c2c1CCC3		> 100 µM		> 100 µM		80.1 µM		> 100 µM		> 100 µM				> 100 µM		> 100 µM		> 100 µM		> 100 µM
CC1CCC2(NC1)OC1CC3[C@@H]4CC=C5C=CCC[C@]5(C)C4CC[C@]3(C)C1C2C (some centres undefined)		36.6 µM		32.7 µM		61.8 µM		29.7 µM		49 µM				51 µM		32.1 µM		34.6 µM		> 100 µM
COc1cc(N=Nc2ccccc2)cc(/C=N\[N-]C(N)=S)c1[O-].COc1cc(N=Nc2ccccc2)cc(/C=N\[N-]C(N)=S)c1[O-].[Fe+4]	23.4 µM	89.9 µM	19.5 µM	> 100 µM	> 100 µM	> 100 µM	12.6 µM	> 100 µM	> 100 µM	> 100 µM			17.8 µM	> 100 µM	34.9 µM	> 100 µM	24.3 µM	61.3 µM		
NC1CCCCC1N.O=C([O-])P(=O)([O-])[O-].[Na+].[Pt+4] (centres undefined)	> 100 µM	> 100 µM	47.6 µM	> 100 µM			75.9 µM	> 100 µM	> 100 µM	> 100 µM			> 100 µM	> 100 µM	> 100 µM	> 100 µM				
COc1ccc(S(=O)(=O)N/N=C/CN2C(=O)c3ccccc3C2=O)cc1OC		> 100 µM		> 100 µM				> 100 µM		> 100 µM				> 100 µM		> 100 µM		> 100 µM		> 100 µM
O=C1c2ccccc2-c2nccc3cc(Cl)nc1c23	2.89 µM	18.6 µM	1.18 µM	2.41 µM	1.56 µM	5.64 µM	1.97 µM	> 100 µM			4.62 µM	> 73.4 µM	1.64 µM	3 µM					> 100 µM	> 100 µM
